Laboratory results: publication PMC9130233, “An inhibitor of RORγ for chronic pulmonary obstructive disease treatment” (Scientific Reports, 2022)
Where two headings read alike, the source gives them in different places.

Key:
[1] = test system: IL-17F cytokine from human PBMC; test: IL-17F inhibition, human PBMC; format: cell-based; settings: hPBMC, read-out: potency, IL-17F levels
Ca Channel (L type) = test: Cerep panel, Ca channel (L type)
From the text: Based on the homology of the ligand binding domains, 3 different isoforms of ROR (hRORα, hRORβ and hRORγ) are reported. Small variations in the LBD regions possibly lead to differences in competitive binding between the nuclear receptors of the ROR isoforms (Fig. 1b). Similar to the assessment of RORγ binding assay, TR-FRET binding assays were also used to assess the affinity of PCCR-1 for other ROR isoforms. […] This was reconfirmed in cellular functional assays for the selected isoforms and nuclear receptors using Gal4 DBD with luciferase reporter system from Indigo (PA, USA). […] In addition, both cellular agonist and antagonist effects as well as for enzyme activity were evaluated with a known reference compound for each target, using a radiolabeled method (Eurofins Cerep, France, Table 1).

[2] = test system: IL-22 release in human PBMC; test: IL-22 release, human PBMC under Th17 polarization conditions; format: cell-based; settings: human PBMC under Th17 polarization condition
Description: An increase in the levels of Th17 dependent cytokine in the peripheral blood of COPD patients as compared to the Th1 and Th2 dependent cytokines has been well documented in a subset of COPD patients. A comparative study was performed under TCR activating conditions to evaluate the potencies of PCCR-1 for inhibition across Th1, Th2 and Th17 dependent cytokines using hPBMCs.
Human whole blood from healthy subjects were procured from Clinical Research Unit, Sanpada. Clinical Research Center Glenmark (Plot No. D, 508, Turbhe, TTC Industrial Area, MIDC, Sanpada, Navi Mumbai, Maharashtra 400705, India). PBMCs were isolated using heparinized blood with Ficoll Histopaque. Briefly, the cells were seeded in 96-well plate pre-coated with human anti-CD3 mAb (10 µg/mL), post 30 min of compound treatment cells were stimulated with human anti-CD28 mAb (2 µg/mL). After 72 h of culture, the supernatant was collected for Th1/Th2 cytokines; IFN-γ, IL-2, IL-4 and IL-10 and measured by ELISA. For Th17 polarization assay, the following cytokine cocktail was used: IL-1β (10 ng/ml), IL-23(10 ng/ml), IL-6 (50 ng/ml), TGF-β1 (3 ng/ml), IL-2 (20U/ml) and supernatants were used for measuring IL-17 and IL-22 by ELISA.

[3] = Toxicokinetics (blood), 14-day inhalation study in Sprague Dawley rats; format: in vivo, rat; settings: for half-life / AUC(0-t) / Cmax / Tmax: inhaled or intranasal; for half-life / AUC(0-t) / Cmax: inhalation; for AUC(0-t): read-out: AUC0-tlast, mean (SE); for Cmax: read-out: Cmax, mean (SE)
Description: Rats were exposed to PCCR-1 aerosols at 3.4, 10.8 and 32.1 mg/kg/day (delivered dose) for 60 min daily for 14 days using a snout only exposure technique via a modular stainless steel flow past inhalation chamber at indicated doses as mentioned in Table 3. No treatment-related findings noted, including myeloid:erythroid (M:E) ratios in any dose levels except minimal changes in the reticulocytes and adrenal glands.
The TK assessment was done by measuring the concentrations of PCCR-1 in blood.
The toxicology study was done in SD (Sprague Dawley) rats that were exposed to PCCR-1 aerosol for 60 min daily at 3.4, 10.8 and 32.1 mg/kg/day (delivered dose) for 14 days using a snout only exposure technique via a modular stainless steel flow past inhalation chamber. A 60% w/w blend of PCCR-1 in Lactose LH201 was prepared by adding the appropriate amount of PCCR-1 to the appropriate amount of lactose. The estimated delivered doses were derived based on analytical aerosol concentration, and respiratory minute volume calculated based on body weight, exposure duration, and animal body weight (Supplementary section B).

[4] = both sexes, Sprague Dawley, rat, blood, 10.8 mg/kg/day, SD rat blood, 10.8 mg/kg/day, Day 1, Mean
[5] = both sexes, Sprague-Dawley, rat, blood, 3.4 mg/kg/day, SD rat blood, 3.4 mg/kg/day, Day 1, Mean
[6] = both sexes, Sprague-Dawley, rat, blood, 3.4 mg/kg/day, SD rat blood, 3.4 mg/kg/day, Day 14, Mean
[7] = both sexes, Sprague-Dawley, rat, in vivo, 32.1 mg/kg/day, SD rat blood, 32.1 mg/kg/day, Day 1, Mean
[8] = both sexes, Sprague-Dawley, rat, in vivo, 32.1 mg/kg/day, SD rat blood, 32.1 mg/kg/day, Day 14, Mean
[9] = both sexes, Sprague-Dawley, rat, whole blood, 10.8 mg/kg/day, SD rat blood, 10.8 mg/kg/day, Day 14, Mean
[10] = female, Sprague-Dawley, rat, blood, 3.4 mg/kg/day, SD rat blood, 3.4 mg/kg/day, Day 1, Female
[11] = female, Sprague-Dawley, rat, blood, 3.4 mg/kg/day, SD rat blood, 3.4 mg/kg/day, Day 14, Female
[12] = female, Sprague-Dawley, rat, blood, 10.8 mg/kg/day, SD rat blood, 10.8 mg/kg/day, Day 1, Female
[13] = female, Sprague-Dawley, rat, in vivo, 32.1 mg/kg/day, SD rat blood, 32.1 mg/kg/day, Day 1, Female
[14] = female, Sprague-Dawley, rat, in vivo, 32.1 mg/kg/day, SD rat blood, 32.1 mg/kg/day, Day 14, Female
[15] = female, Sprague-Dawley, rat, whole blood, 10.8 mg/kg/day, SD rat blood, 10.8 mg/kg/day, Day 14, Female
[16] = male, Sprague Dawley, rat, blood, 10.8 mg/kg/day, SD rat blood, 10.8 mg/kg/day, Day 1, Male
[17] = male, Sprague-Dawley, rat, blood, 3.4 mg/kg/day, SD rat blood, 3.4 mg/kg/day, Day 1, Male
[18] = male, Sprague-Dawley, rat, blood, 3.4 mg/kg/day, SD rat blood, 3.4 mg/kg/day, Day 14, Male
[19] = male, Sprague-Dawley, rat, in vivo, 32.1 mg/kg/day, SD rat blood, 32.1 mg/kg/day, Day 1, Male
[20] = male, Sprague-Dawley, rat, in vivo, 32.1 mg/kg/day, SD rat blood, 32.1 mg/kg/day, Day 14, Male
[21] = male, Sprague-Dawley, rat, whole blood, 10.8 mg/kg/day, SD rat blood, 10.8 mg/kg/day, Day 14, Male
[22] = rat blood, mid and high dose levels

**Q.** Which results are given for `CCn1c(C(C)(C)Oc2ccc(F)cc2F)nc2cc(NC(=O)Cc3ccc(S(=O)(=O)CC)cc3)ccc21` [PCCR-1]?
**A.** IC50 [1]: 788 nM; IC50 (Ca Channel (L type)): 2600 nM; ceiling effect for IL-22 release inhibition [2]: 60%; IC50 ([2]; n = 2, read-out: hIL-22 IC50): 43.8 nM; half-life ([3]; Sprague-Dawley, in vivo, SD rat blood, 32.1 mg/kg/day, Day 1, Female): 6.9 h; half-life ([3]; Sprague-Dawley, in vivo, SD rat blood, 32.1 mg/kg/day, Day 1, Male): 6.8 h; AUC(0-t) [3, 4]: 5090 ng·h/mL; Cmax [3, 4]: 457 ng/mL; Tmax ([3]; both sexes, Sprague Dawley, rat, blood, 10.8 mg/kg/day, from start of inhalation dosing, SD rat blood, 10.8 mg/kg/day, Day 1, Mean): 3 h; half-life ([3]; both sexes, Sprague-Dawley, in vivo, SD rat blood, 32.1 mg/kg/day, Day 1, Mean): 6.8 h; AUC(0-t) [3, 5]: 982 ng·h/mL; Cmax [3, 5]: 189 ng/mL; half-life [3, 6]: 6.4 h; AUC(0-t) [3, 6]: 2560 ng·h/mL; Cmax [3, 6]: 215 ng/mL; Tmax ([3]; both sexes, Sprague-Dawley, rat, blood, 3.4 mg/kg/day, from start of inhalation dosing, SD rat blood, 3.4 mg/kg/day, Day 1, Mean): 3 h; Tmax ([3]; both sexes, Sprague-Dawley, rat, blood, 3.4 mg/kg/day, from start of inhalation dosing, SD rat blood, 3.4 mg/kg/day, Day 14, Mean): 4 h; AUC(0-t) [3, 7]: 7440 ng·h/mL; Cmax [3, 7]: 735 ng/mL; AUC(0-t) [3, 8]: 12200 ng·h/mL; Cmax [3, 8]: 1020 ng/mL; half-life ([3]; both sexes, Sprague-Dawley, rat, whole blood, 10.8 mg/kg/day, SD rat blood, 10.8 mg/kg/day, Day 1, Mean): 5.9 h; half-life [3, 9]: 5.1 h; AUC(0-t) [3, 9]: 6750 ng·h/mL; Cmax [3, 9]: 519 ng/mL; Tmax ([3]; both sexes, Sprague-Dawley, rat, whole blood, 10.8 mg/kg/day, from start of inhalation dosing, SD rat blood, 10.8 mg/kg/day, Day 14, Mean): 4 h; tlast ([3]; both, Sprague-Dawley, rat, in vivo, 3.4 mg/kg/day): 25.0 h; tlast ([3]; both, Sprague-Dawley, rat, in vivo, 10.8 mg/kg/day): 25.0 h; AUC(0-t) [3, 10]: 1000 ng·h/mL; Cmax [3, 10]: 202 ng/mL; AUC(0-t) [3, 11]: 2610 ng·h/mL; Cmax [3, 11]: 241 ng/mL; Tmax ([3]; female, Sprague-Dawley, rat, blood, 3.4 mg/kg/day, from start of inhalation dosing, SD rat blood, 3.4 mg/kg/day, Day 1, Female): 3 h; Tmax ([3]; female, Sprague-Dawley, rat, blood, 3.4 mg/kg/day, from start of inhalation dosing, SD rat blood, 3.4 mg/kg/day, Day 14, Female): 5 h; half-life [3, 12]: 5.8 h; AUC(0-t) [3, 12]: 7270 ng·h/mL; Cmax [3, 12]: 544 ng/mL; Tmax ([3]; female, Sprague-Dawley, rat, blood, 10.8 mg/kg/day, from start of inhalation dosing, SD rat blood, 10.8 mg/kg/day, Day 1, Female): 3 h; tlast ([3]; female, Sprague-Dawley, rat, in vivo, 3.4 mg/kg/day): 25.0 h; tlast ([3]; female, Sprague-Dawley, rat, in vivo, 10.8 mg/kg/day): 25.0 h; AUC(0-t) [3, 13]: 9470 ng·h/mL; Cmax [3, 13]: 936 ng/mL; AUC(0-t) [3, 14]: 16200 ng·h/mL; Cmax [3, 14]: 1150 ng/mL; half-life [3, 15]: 5.1 h; AUC(0-t) [3, 15]: 8050 ng·h/mL; Cmax [3, 15]: 679 ng/mL; Tmax ([3]; female, Sprague-Dawley, rat, whole blood, 10.8 mg/kg/day, from start of inhalation dosing, SD rat blood, 10.8 mg/kg/day, Day 14, Female): 3 h; tlast ([3]; from start of inhalation dosing, SD rat blood, 3.4 mg/kg/day, Day 1, Female): 9.0 h; tlast ([3]; from start of inhalation dosing, SD rat blood, 3.4 mg/kg/day, Day 1, Male): 9.0 h; tlast ([3]; from start of inhalation dosing, SD rat blood, 3.4 mg/kg/day, Day 1, Mean): 9.0 h; tlast ([3]; from start of inhalation dosing, SD rat blood, 32.1 mg/kg/day, Day 1, Female): 25.0 h; tlast ([3]; from start of inhalation dosing, SD rat blood, 32.1 mg/kg/day, Day 1, Male): 25.0 h; tlast ([3]; from start of inhalation dosing, SD rat blood, 32.1 mg/kg/day, Day 1, Mean): 25.0 h; tlast ([3]; from start of inhalation dosing, SD rat blood, 32.1 mg/kg/day, Day 14, Female): 25.0 h; tlast ([3]; from start of inhalation dosing, SD rat blood, 32.1 mg/kg/day, Day 14, Male): 25.0 h; tlast ([3]; from start of inhalation dosing, SD rat blood, 32.1 mg/kg/day, Day 14, Mean): 25.0 h; half-life [3, 16]: 6 h; AUC(0-t) [3, 16]: 2910 ng·h/mL; Cmax [3, 16]: 370 ng/mL; Tmax ([3]; male, Sprague Dawley, rat, blood, 10.8 mg/kg/day, from start of inhalation dosing, SD rat blood, 10.8 mg/kg/day, Day 1, Male): 3 h; tlast ([3]; male, Sprague Dawley, rat, in vivo, 10.8 mg/kg/day): 25.0 h; AUC(0-t) [3, 17]: 963 ng·h/mL; Cmax [3, 17]: 177 ng/mL; half-life [3, 18]: 6.4 h; AUC(0-t) [3, 18]: 2500 ng·h/mL; Cmax [3, 18]: 190 ng/mL; Tmax ([3]; male, Sprague-Dawley, rat, blood, 3.4 mg/kg/day, from start of inhalation dosing, SD rat blood, 3.4 mg/kg/day, Day 1, Male): 3 h; Tmax ([3]; male, Sprague-Dawley, rat, blood, 3.4 mg/kg/day, from start of inhalation dosing, SD rat blood, 3.4 mg/kg/day, Day 14, Male): 3 h; tlast ([3]; male, Sprague-Dawley, rat, in vivo, 3.4 mg/kg/day): 25.0 h; tlast ([3]; male, Sprague-Dawley, rat, in vivo, 10.8 mg/kg/day): 25.0 h; AUC(0-t) [3, 19]: 5410 ng·h/mL; Cmax [3, 19]: 534 ng/mL; AUC(0-t) [3, 20]: 8230 ng·h/mL; Cmax [3, 20]: 885 ng/mL; AUC(0-t) [3, 21]: 5440 ng·h/mL; Cmax [3, 21]: 359 ng/mL; Tmax ([3]; male, Sprague-Dawley, rat, whole blood, 10.8 mg/kg/day, from start of inhalation dosing, SD rat blood, 10.8 mg/kg/day, Day 14, Male): 5 h; AUC in blood accumulation relative to day-1 ([3]; once-daily inhalation for 14 days, except female rats at 10.8 mg/kg/day): 1.5–2.6 fold; AUC in females higher than males [3, 22]: 1.5–2.5 fold; Cmax in females higher than males [3, 22]: 1.3–1.9 fold
